Here are results for one molecule from BindingDB's records for patent US20240308985 (Psy Therapeutics, 2024).

For the test, the target named is T1, Fatty-acid amide hydrolase 1 (Homo sapiens, UniProt O00519).
T1 sequence (O00519 whole entry): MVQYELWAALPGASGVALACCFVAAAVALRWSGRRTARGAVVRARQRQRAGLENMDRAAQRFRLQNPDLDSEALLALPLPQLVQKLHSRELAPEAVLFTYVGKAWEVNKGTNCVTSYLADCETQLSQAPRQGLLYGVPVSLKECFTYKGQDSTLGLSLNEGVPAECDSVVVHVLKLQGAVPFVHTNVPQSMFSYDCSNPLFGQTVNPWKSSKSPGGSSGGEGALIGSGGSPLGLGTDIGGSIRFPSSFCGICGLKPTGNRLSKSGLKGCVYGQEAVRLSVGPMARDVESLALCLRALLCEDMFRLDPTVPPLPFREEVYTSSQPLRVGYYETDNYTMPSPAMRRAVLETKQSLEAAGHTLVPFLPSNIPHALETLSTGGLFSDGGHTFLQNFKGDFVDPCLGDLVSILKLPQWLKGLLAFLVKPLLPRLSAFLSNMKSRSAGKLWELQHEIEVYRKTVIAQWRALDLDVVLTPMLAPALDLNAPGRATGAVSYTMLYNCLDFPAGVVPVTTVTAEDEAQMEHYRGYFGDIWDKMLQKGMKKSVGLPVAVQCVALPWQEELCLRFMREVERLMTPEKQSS
The experiment in a line: Measuring FAAH Inhibition Potency. The protocol:
MAGL inhibitor compounds were also counter-screened for FAAH inhibition potency using the following assay. Assessment of FAAH inhibition was performed using Fatty Acid Amide Hydrolase Inhibitor Screening Assay Kit (Cayman Item No. 10005196) following manufacture's instruction with some modifications. The kit utilizes human recombinant FAAH and the fluorescent substrate, AMC Arachidonoyl amide (AAMCA). 5 μL of assay buffer (125 mM Tris, pH 9.0, 1 mM EDTA, i.e. ethylenediaminetetraacetic acid) was added to a 384-well black plate (Corning, 3573). Test compounds and control inhibitor JZL-195 (Cayman Chemical, 13668) were tested in 10-concentration IC50 mode with 3-fold serial dilution at a starting concentration of 100 μM and 10 μM, respectively. 300 nL or 30 nL of test compounds were delivered into a 384-well black plate (Corning, 3573) using a Labcyte Echo, followed by addition of 15 μL of FAAH enzyme (Cayman, 700302) in assay buffer. After a 5-minute pre-incubation at room temperature, 10 μL of AAMCA was added in assay buffer to start the reaction. Final concentration of FAAH enzyme is not specified and AAMCA substrate was used at the 20 uM. […] The reaction was allowed to progress for 60 minutes, while the plate was read on an Envision plate reader at an Ex/Em of 350/460 nm with readings every minute. The data was analyzed in Microsoft Excel, using the slope between 30 and 59 minutes. […]

Some results are limits rather than exact numbers.

Turning to `Cc1cc(C2=CC3(C2)CN(C(=O)c2cc(O)ccc2F)C3)n(-c2ccccc2C)n1` [US20240308985, Compound 120], the 50% inhibitory concentration (IC50) was greater than 10 µM.
